In general, MIC refers to the smallest concentration in the dilution series that meets the test's criterion for growth inhibition. Higher therefore signals weaker potency.

From ChEMBL document CHEMBL4373724, “An overview of recent progress in siderophore-antibiotic conjugates” (2019) come the findings set out here.

Common to all, as to type: functional
Experiment [1] has as its system Escherichia coli. Nature of the experiment: Antimicrobial activity against Escherichia coli X580 under iron-sufficient condition by broth microdilution method. Background: In broth dilution the organism is exposed to a series of concentrations in liquid medium.
Experiment [2] concerns Escherichia coli. As to the kind of experiment: Antimicrobial activity against Escherichia coli X580 under iron-deficient condition by broth microdilution method.
Experiment [3] relates to Escherichia coli. As to the kind of experiment: Antimicrobial activity against Escherichia coli EC14 under iron-sufficient condition by broth microdilution method.
Experiment [4] relates to Escherichia coli. Nature of the experiment: Antimicrobial activity against Escherichia coli EC14 under iron-deficient condition by broth microdilution method.
The test system of experiment [5] is Pseudomonas aeruginosa. As to the kind of experiment: Antimicrobial activity against Pseudomonas aeruginosa X620 under iron-sufficient condition by broth microdilution method.
The test system of experiment [6] is Pseudomonas aeruginosa. Nature of the experiment: Antimicrobial activity against Pseudomonas aeruginosa X620 under iron-deficient condition by broth microdilution method.
The test system of experiment [7] is Pseudomonas aeruginosa. As to the kind of experiment: Antimicrobial activity against Pseudomonas aeruginosa X621 under iron-sufficient condition by broth microdilution method.
Experiment [8] has as its system Pseudomonas aeruginosa. As to the kind of experiment: Antimicrobial activity against Pseudomonas aeruginosa X621 under iron-deficient condition by broth microdilution method.
The subject of experiment [9] is Staphylococcus aureus. As to the kind of experiment: Antimicrobial activity against Staphylococcus aureus X1.1 under iron-sufficient condition by broth microdilution method.
The test system of experiment [10] is Staphylococcus aureus. Nature of the experiment: Antimicrobial activity against Staphylococcus aureus X1.1 under iron-deficient condition by broth microdilution method.
For experiment [11], the system named is Micrococcus luteus. As to the kind of experiment: Antimicrobial activity against Micrococcus luteus under iron-sufficient condition by broth microdilution method.
The subject of experiment [12] is Micrococcus luteus. As to the kind of experiment: Antimicrobial activity against Micrococcus luteus under iron-deficient condition by broth microdilution method.
Experiment [13] deals with Staphylococcus aureus. As to the kind of experiment: Antimicrobial activity against Staphylococcus aureus X1.1.
Experiment [14] relates to Staphylococcus aureus. Nature of the experiment: Antimicrobial activity against Staphylococcus aureus V41.
In experiment [15] the test system is Streptococcus. Nature of the experiment: Antimicrobial activity against Streptococcus AC283.
Experiment [16] relates to Streptococcus pneumoniae. As to the kind of experiment: Antimicrobial activity against Streptococcus pneumoniae PARK.
The subject of experiment [17] is Mycobacterium tuberculosis. As to the kind of experiment: Antitubercular activity against Mycobacterium tuberculosis H37Rv.
Experiment [18] relates to Mycolicibacterium smegmatis. Nature of the experiment: Antitubercular activity against Mycobacterium smegmatis.

In brackets after ≈: the same amount, converted by molar mass.

In the case of `CN[C@H](CC(C)C)C(=O)N[C@H]1C(=O)N[C@@H](CC(N)=O)C(=O)N[C@H]2C(=O)N[C@H]3C(=O)N[C@H](C(=O)N[C@H](C(=O)O)c4cc(O)cc(O)c4-c4cc3ccc4O)[C@H](O)c3ccc(c(Cl)c3)Oc3cc2cc(c3O[C@@H]2O[C@H](CO)[C@@H](O)[C@H](O)[C@H]2O[C@H]2C[C@](C)(NC(=O)CCC(=O)N(O)CCCCCNC(=O)CCC(=O)N(CCCCNC(=O)c3cccc(O)c3O)CCCNC(=O)c3cccc(O)c3O)[C@H](O)[C@H](C)O2)Oc2ccc(cc2Cl)[C@H]1O`, the MIC in [1] was 32 µM (≈ 68.8 µg/mL); in [2], 128 µM (≈ 275 µg/mL); in experiment [3], above 128 µM; in [4], above 128 µM; in [5], above 128 µM; in experiment [6], above 128 µM. In addition, the minimal inhibitory concentration (MIC) was above 128 µM in experiment [7]; above 128 µM in experiment [8]; 8 µM (≈ 17.2 µg/mL) in experiment [9]; 8 µM (≈ 17.2 µg/mL) in experiment [10]; 16 µM (≈ 34.4 µg/mL) in experiment [11]; 16 µM (≈ 34.4 µg/mL) in experiment [12].
Regarding `O=C(CCC(=O)N(CCCCNC(=O)c1cccc(O)c1O)CCCNC(=O)c1cccc(O)c1O)N[C@@H]1C(=O)N2C(C(=O)O)=C(Cl)CC[C@H]12`, the MIC stood at 64 µg/mL (≈ 89.4 µM) in experiment [13], 64 µg/mL (≈ 89.4 µM) in experiment [14], 16 µg/mL (≈ 22.3 µM) in [15] and 64 µg/mL (≈ 89.4 µM) in [16].
In the case of `CCCCCCCCCCCCCCCCC(=O)N(O)CCCC[C@H](NC(=O)[C@@H]1COC(c2ccccc2O)=N1)C(=O)NC[C@H](NC(=O)CCCO[C@H]1O[C@@H]2O[C@@]3(C)CC[C@H]4[C@H](C)CC[C@@H]([C@H]1C)[C@@]24OO3)C(=O)N[C@H]1CCCCN(O)C1=O`, the figures for the MIC in experiment [17] and in experiment [18] were 0.39 µg/mL (≈ 0.334 µM) and above 5 µg/mL, respectively.
For `CN[C@H](CC(C)C)C(=O)N[C@H]1C(=O)N[C@@H](CC(N)=O)C(=O)N[C@H]2C(=O)N[C@H]3C(=O)N[C@H](C(=O)N[C@H](C(=O)O)c4cc(O)cc(O)c4-c4cc3ccc4O)[C@H](O)c3ccc(c(Cl)c3)Oc3cc2cc(c3O[C@@H]2O[C@H](CO)[C@@H](O)[C@H](O)[C@H]2O[C@H]2C[C@](C)(N)[C@H](O)[C@H](C)O2)Oc2ccc(cc2Cl)[C@H]1O` [VANCOMYCIN], the minimum inhibitory concentration (MIC) was 32 to 64 µM (≈ 46.4 to 92.8 µg/mL) in experiment [1]; 32 µM (≈ 46.4 µg/mL) in [2]; above 128 µM in experiment [3]; above 128 µM in experiment [4]; above 128 µM in experiment [5]; above 128 µM in experiment [6]. For the same molecule, the minimum inhibitory concentration (MIC) in [7] was above 128 µM; in experiment [8], above 128 µM; in experiment [9] it was 1 to 4 µM (≈ 1.45 to 5.8 µg/mL); in [10], 0.5 to 4 µM (≈ 0.725 to 5.8 µg/mL); in experiment [11], 2 to 4 µM (≈ 2.9 to 5.8 µg/mL); in experiment [12], 1 to 4 µM (≈ 1.45 to 5.8 µg/mL).
